From patent US20080221218A1, “Receptor” (The University of York, priority 2005, published 2008)

Tests used:
[1] = literature (Bertsch et al.); cited from earlier work
[2] = Potentiometric titrations: binding of inorganic phosphate (equimolar KH2PO4 and receptor); conditions: for Binding constant (Log K) H3L3+ + HA2− ⇄ H4LA+ / Binding constant (Log K) H4L4+ + HA2− ⇄ H5LA2+ / Protonation and binding constant (Log K) 4H+ + L + A3− ⇄ H4LA+ / Protonation and binding constant (Log K) 5H+ + L + A3− ⇄ H5LA2+ / Binding constant (Log K) H2L2+ + HA2− ⇄ H3LA / Binding constant (Log K) H4L4+ + H2A− ⇄ H6LA3+ / Protonation and binding constant (Log K) 3H+ + L + A3− ⇄ H3LA / Protonation and binding constant (Log K) 6H+ + L + A3− ⇄ H6LA3+: A = phosphate, 0.1 M KCl, 25° C.; for Binding constant (Log K) H3L3+ + HA2− ⇄ H4LA+ / Binding constant (Log K) H4L4+ + HA2− ⇄ H5LA2+ / Protonation and binding constant (Log K) 4H+ + L + A3− ⇄ H4LA+ / Protonation and binding constant (Log K) 5H+ + L + A3− ⇄ H5LA2+ / affinity towards inorganic phosphate (log K), range over protonation states / Binding constant (Log K) H2L2+ + HA2− ⇄ H3LA / Binding constant (Log K) H4L4+ + H2A− ⇄ H6LA3+ / Protonation and binding constant (Log K) 3H+ + L + A3− ⇄ H3LA / Protonation and binding constant (Log K) 6H+ + L + A3− ⇄ H6LA3+: potentiometry; for Protonation and binding constant (Log K) 4H+ + L + A3− ⇄ H4LA+ / Protonation and binding constant (Log K) 5H+ + L + A3− ⇄ H5LA2+ / Protonation and binding constant (Log K) 3H+ + L + A3− ⇄ H3LA / Protonation and binding constant (Log K) 6H+ + L + A3− ⇄ H6LA3+: overall constant; for phosphate in solution bound by receptor: pH 7.0, from speciation diagrams of potentiometric data (FIG. 4); for affinity towards inorganic phosphate (log K), range over protonation states: summary of Table 2; for Binding constant (Log K) H2L2+ + HA2− ⇄ H3LA / Binding constant (Log K) H4L4+ + H2A− ⇄ H6LA3+ / Protonation and binding constant (Log K) 3H+ + L + A3− ⇄ H3LA / Protonation and binding constant (Log K) 6H+ + L + A3− ⇄ H6LA3+: dash = equilibrium does not occur significantly
Description: (§1) Potentiometric measurements were conducted using a Metrohm 792SM Titrino automated burette fitted with a combined glass electrode and an in-house designed jacketed glass cell thermostated at 25° C. suitable for small sample volumes (5 mL). The cell was sealed under an inert atmosphere. All solutions were made up using ultrapure CO2-free water from a Millipore Simplicity 185 system. The sample solutions contained 0.1 M KCl as a background electrolyte. The titrant base was made up from commercial (Riedel-de Haën) CO2-free concentrates of KOH, diluted to the required concentration (0.020 M) with a 0.080 M KCl solution to avoid problems of different ionic strengths. The glass electrode was calibrated by titrating well-known amounts of HCl (made up from Riedel-de Haën concentrates) with the base and determining the equivalence point using Gran's method (G. Gran, Analyst, 1952, 77, 661-671) yielding the ionic product of water (pKw=13.78), which was used as a constant in the subsequent analyses.
(§2) Sample concentrations were typically 1.0-5.0×10^−3 M. A known excess of HCl was added to ensure full protonation of the receptor. The degree of protonation of our receptors was calculated from the onset of titration curve. […] A minimum of 250 points in the pH-range of 2.5-11.0 was taken for every titration, with at least 30 seconds between each addition to ensure equilibration. The computer program […]^I was used to determine the protonation and stability constants. For each system a minimum of three titrations were first treated as individual sets and then merged and fitted simultaneously to give the final constants.

[3] = Potentiometric titrations: protonation constants; type: physicochemical; conditions: potentiometry, 0.1 M KCl, 25° C.; for Protonation constant (log K) 2H+ + L ⇄ H2L2+ / Protonation constant (log K) 3H+ + L ⇄ H3L3+ / Protonation constant (log K) 4H+ + L ⇄ H4L4+: cumulative; for Protonation constant (log K) H+ + H2L2+ ⇄ H3L3+ / Protonation constant (log K) H+ + H3L3+ ⇄ H4L4+ / Protonation constant (log K) H+ + HL+ ⇄ H2L2+: stepwise
Description: as §1, §2
To study the binding in more detail we used potentiometry. To enable this, we first investigated the protonation constants of the receptors and the data is collected in Table 1. We calibrated our system with spermine (compound 4) and the data for this compound are also included in this table and were in accordance with literature values (Bazzicalupi et al, J. Am. Chem. Soc. 121: 6807-6815 (1999); De Stefano et al., J. Chem. Soc. Faraday Trans, 94:1091-1095 (1998); Bergeron et al., J. Med. Chem. 38:2278-2285 (1995)).

[4] = Fluorimetric titrations: quenching of fluorescent phosphate derivative 13; conditions: 1:1 binding model; 0.1 M TRIS buffer pH 7.0; 13 at 5.0×10^−6 M
Description: Titrations were performed on a Spex Fluoromax-II instrument at 25° C. in a 0.1 M TRIS buffer of pH 7.0, using an excitation wavelength of 324 nm.
Upon titration of our receptors to a solution of this probe in buffered water (0.1 M Tris, pH 7.0) the emission of compound 13 was quenched indicating binding (FIG. 3).
This is related to the trans configuration of the oligoamines around the conformationally restricted scaffold in compound 1 preventing the oligoamines from cooperating.

SMILES	Binding constant (Log K) H3L3+ + HA2− ⇄ H4LA+ [2]	Binding constant (Log K) H4L4+ + HA2− ⇄ H5LA2+ [2]	Protonation and binding constant (Log K) 4H+ + L + A3− ⇄ H4LA+ [2]	Protonation and binding constant (Log K) 5H+ + L + A3− ⇄ H5LA2+ [2]	phosphate in solution bound by receptor [2]	affinity towards inorganic phosphate (log K), range over protonation states [2]	Protonation constant (log K) 2H+ + L ⇄ H2L2+ [3]	Protonation constant (log K) 3H+ + L ⇄ H3L3+ [3]	Protonation constant (log K) 4H+ + L ⇄ H4L4+ [3]	Protonation constant (log K) H+ + L ⇄ HL+ [3]	Protonation constant (log K) H+ + H2L2+ ⇄ H3L3+ [3]	Protonation constant (log K) H+ + H3L3+ ⇄ H4L4+ [3]	Protonation constant (log K) H+ + HL+ ⇄ H2L2+ [3]	binding constant (log K) for fluorescent phosphate derivative 13 [4]	Binding constant (Log K) H2L2+ + HA2− ⇄ H3LA [2]	Binding constant (Log K) H4L4+ + H2A− ⇄ H6LA3+ [2]	Protonation and binding constant (Log K) 3H+ + L + A3− ⇄ H3LA [2]	Protonation and binding constant (Log K) 6H+ + L + A3− ⇄ H6LA3+ [2]	first protonation pKa [1]	second protonation pKa [1]
NCCN [1,2-diaminoethane]																			10.1	7.0
NCCCN [1,3-diaminopropane]																			10.6	8.6
NCCCCN [1,4-diaminobutane]																				9.4
CN(CCCN)CCCNC(=O)/C=C/C(=O)NCCCN(C)CCCN [Compound 1]	2.90	3.39	42.87	50.44	31%	2.9-3.4	20.05	28.42	35.50	10.45	8.37	7.08	9.60	no significant binding occurs						

Further lines, with some results ahead:

Binding constant (Log K) H3L3+ + HA2− ⇄ H4LA+ [2]	Binding constant (Log K) H4L4+ + HA2− ⇄ H5LA2+ [2]	Protonation and binding constant (Log K) 4H+ + L + A3− ⇄ H4LA+ [2]	Protonation and binding constant (Log K) 5H+ + L + A3− ⇄ H5LA2+ [2]	phosphate in solution bound by receptor [2]	affinity towards inorganic phosphate (log K), range over protonation states [2]	Protonation constant (log K) 2H+ + L ⇄ H2L2+ [3]	Protonation constant (log K) 3H+ + L ⇄ H3L3+ [3]	Protonation constant (log K) 4H+ + L ⇄ H4L4+ [3]	Protonation constant (log K) H+ + L ⇄ HL+ [3]	Protonation constant (log K) H+ + H2L2+ ⇄ H3L3+ [3]	Protonation constant (log K) H+ + H3L3+ ⇄ H4L4+ [3]	Protonation constant (log K) H+ + HL+ ⇄ H2L2+ [3]	binding constant (log K) for fluorescent phosphate derivative 13 [4]	Binding constant (Log K) H2L2+ + HA2− ⇄ H3LA [2]	Binding constant (Log K) H4L4+ + H2A− ⇄ H6LA3+ [2]	Protonation and binding constant (Log K) 3H+ + L + A3− ⇄ H3LA [2]	Protonation and binding constant (Log K) 6H+ + L + A3− ⇄ H6LA3+ [2]	SMILES	first protonation pKa [1]	second protonation pKa [1]
5.27	8.55	43.27 (7)	50.30 (7)	95%	4.4-8.6	19.06	26.52	30.27	10.04	7.46	3.75	9.02	5.15	4.40	7.67	34.94 (4)	56.33 (9)	CN(CCCN)CCCNC(=O)/C=C\C(=O)NCCCN(C)CCCN [Compound 2]		
10.24		46.85 (4)	53.76 (5)			18.82	25.14	28.11	10.32	6.32	2.97	8.50	5.30	7.53	10.90	37.83 (4)	57.40 (5)	CN1CCCNCc2cccc(c2)CNCCCN(C)CCCNC(=O)/C=C\C(=O)NCCC1 [Compound 3]		
						20.63	29.50	37.58	10.64	8.87	8.08	9.99						NCCCNCCCCNCCCN [Compound 4, spermine, reference compound]		
5.52	10.70	42.67 (3)	50.09 (3)	95%		18.49	25.67	27.91	9.76	7.18	2.24	8.73		4.37	10.17	34.34 (3)	56.47 (3)	CN(CCCN)CCCNC(=O)[C@@H]1C2C=CC(C2)[C@H]1C(=O)NCCCN(C)CCCN [Compound 14]		
